What all share (format): ADME, organism-based
Data set [1] can be described thus: Terminal half life in C57BL/6 mouse at 30 mg/kg, po by LC-MS/MS analysis. As to conditions: in vivo, read-out: beta t1/2 (converted).
Data set [2] is described as follows: Cmax in C57BL/6 mouse at 30 mg/kg, po by LC-MS/MS analysis. The conditions noted are these: in vivo. Details: dose 30 mg/kg, route oral.
The nature of data set [3]: Tmax in C57BL/6 mouse at 30 mg/kg, po by LC-MS/MS analysis. As to conditions: in vivo.
Data set [4] is described as follows: AUC in C57BL/6 mouse at 30 mg/kg, po by LC-MS/MS analysis. As to conditions: in vivo.

A word on the Cmax: it is the peak of the concentration-time curve. What is called Tmax is the time at which the peak concentration occurs. By AUC is commonly meant the area under the concentration-time curve, a measure of exposure. Low values mean less exposure, high ones more exposure.

As to `COc1ccc(C(C)(C)c2cnc(SCCOCc3ccc(C#N)cc3)n2-c2ccc(F)cc2)cc1OC`, the half-life in data set [1] was 60 min. In data set [2], this molecule yielded a Cmax of 2100 nM. The Tmax in data set [3] stood at 12 min. The same molecule registered an AUC in data set [4] of 2.5 µM·h.
